Data: patent US20260297109A1, “COMPOUNDS AS SUMO ACTIVATING ENZYME INHIBITORS” (WIGEN BIOMEDICINE TECHNOLOGY (SHANGHAI) CO., LTD., priority 2022, published 2026)
Read-outs that look alike come from different tables or passages of the source.

How the values were obtained:
SAE = biological target: T1, SAE (Homo sapiens, UniProt Q9UBT2); assay: SUMO IF: in vitro inhibitory activity assay against SAE in HCT116 cells (SUMO-2/3 immunofluorescence); assay type: cell-based; conditions: 6 h at 37° C.
T1 construct: endogenous in cells; host or cells: HCT116
T1 sequence (Q9UBT2 1-640): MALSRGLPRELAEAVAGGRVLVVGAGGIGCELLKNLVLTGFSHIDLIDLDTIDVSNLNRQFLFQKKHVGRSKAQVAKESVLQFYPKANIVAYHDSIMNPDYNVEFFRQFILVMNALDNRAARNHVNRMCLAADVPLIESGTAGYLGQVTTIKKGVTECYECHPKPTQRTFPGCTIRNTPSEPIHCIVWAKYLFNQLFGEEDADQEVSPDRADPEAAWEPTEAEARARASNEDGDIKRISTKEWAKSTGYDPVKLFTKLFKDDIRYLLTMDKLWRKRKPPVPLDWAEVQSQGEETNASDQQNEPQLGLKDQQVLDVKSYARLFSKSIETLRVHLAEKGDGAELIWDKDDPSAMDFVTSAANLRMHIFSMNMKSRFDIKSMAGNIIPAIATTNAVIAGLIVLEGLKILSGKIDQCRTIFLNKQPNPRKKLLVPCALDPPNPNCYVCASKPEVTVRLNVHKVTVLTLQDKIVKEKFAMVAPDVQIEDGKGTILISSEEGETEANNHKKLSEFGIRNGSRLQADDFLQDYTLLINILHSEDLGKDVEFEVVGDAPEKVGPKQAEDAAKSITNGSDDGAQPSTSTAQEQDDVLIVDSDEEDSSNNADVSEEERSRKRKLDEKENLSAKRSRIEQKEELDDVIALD
T1 sequence (Q9UBE0 1-346): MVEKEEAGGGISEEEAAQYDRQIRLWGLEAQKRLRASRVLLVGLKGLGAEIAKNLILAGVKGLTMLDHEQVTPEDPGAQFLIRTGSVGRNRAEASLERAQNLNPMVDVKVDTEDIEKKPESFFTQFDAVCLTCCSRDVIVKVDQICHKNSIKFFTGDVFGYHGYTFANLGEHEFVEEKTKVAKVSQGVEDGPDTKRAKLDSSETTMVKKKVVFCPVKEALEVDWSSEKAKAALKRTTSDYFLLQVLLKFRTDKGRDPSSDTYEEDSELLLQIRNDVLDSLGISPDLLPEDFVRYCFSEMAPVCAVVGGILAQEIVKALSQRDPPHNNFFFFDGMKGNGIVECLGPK
How it was run: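 SUMO-2/3 immunofluorescence (18H8 primary 1:400, FITC secondary 1:300) was read after 6 h compound exposure of HCT116 cells at 37 °C. Inhibition rate and IC50 derive from signal relative to DMSO-treated wells.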

[1] = In vivo pharmacokinetic experiment in CD-1 female mice, intravenous; conditions: CD-1 mice; for Plasma AUClast: plasma (Table 4); for C0 / clearance / half-life / AUC(0-t) / Cmax / Vd / blood plasma ratio: mouse; for Vd: read-out: Vdss; for blood plasma ratio: in vivo, iv
Method: Biological Example 3. In Vivo Pharmacokinetic Experiment of Compound of the Present Disclosure
[…] The mice were fasted for at least 12 h before the administration and given food after the administration, and they were given ad libitum access to water during the experiment. On the day of the experiment, animals in the intravenous group were administered the corresponding compound by single injection via the tail vein at an administration volume of 0.2 mL/animal. The sample collection time was 0.083 h, 0.167 h, 0.5 h, 1 h, 2 h, 4 h, 8 h, and 24 h. About 150 μL of whole blood was collected through the submaxillary venous plexus at each time point (30 μL of whole blood was diluted with ultrapure water at a ratio of 1:3, and 120 μL of whole blood was centrifuged to obtain plasma) and used for concentration determination by high-performance liquid chromatography-tandem mass spectrometry (LC-MS/MS). All animals were sacrificed after the PK samples were collected at the last time point. The plasma concentration was processed using a non-compartmental model of Phoenix WinNonlin™ version 8.3 (Certara) pharmacokinetic software, and the pharmacokinetic parameters were calculated using a linear-log trapezoidal method.

[2] = 2 mg/kg, 2 mpk, plasma, read-out: AUClast
[3] = 2 mg/kg, 2 mpk, plasma, read-out: Cmax
[4] = 2 mg/kg, 2 mpk, whole blood, read-out: Whole blood AUClast
[5] = 2 mg/kg, 2 mpk, whole blood, read-out: Whole blood Cmax
[6] = 2 mg/kg, 2 mpk, read-out: Whole blood AUClast/plasma AUClast ratio
[7] = 2 mg/kg, 2 mpk, read-out: Whole blood Cmax/plasma Cmax ratio

| Compound | IC50 (SAE; numeric values) [nM] | Plasma AUClast ([1]; 2 mpk) [ng·h/mL] | C0 ([1]; 2 mg/kg, 2 mpk, plasma) [ng/mL] | clearance ([1]; 2 mg/kg, 2 mpk, plasma) [mL/min/kg] | half-life ([1]; 2 mg/kg, 2 mpk, plasma) [h] | AUC(0-t) [1, 2] [ng·h/mL] | Cmax [1, 3] [ng/mL] | Vd ([1]; 2 mg/kg, 2 mpk, plasma) [L/kg] | AUC(0-t) [1, 4] [ng·h/mL] | Cmax [1, 5] [ng/mL] | blood plasma ratio [1, 6] | blood plasma ratio [1, 7] | IC50 (SAE; class symbols) [nM] | other results |
| --- | --- | --- | --- | --- | --- | --- | --- | --- | --- | --- | --- | --- | --- | --- |
| NS(=O)(=O)OC[C@H]1[C@H](F)[C@@H](Nc2ncncc2C(=O)c2cc3c(s2)CCC[C@]32NCCc3ccc(Cl)cc32)C[C@@H]1O [Compound 90] | 21.1 | 615 | 431 | 53.1 | 4.73 | 615 | 331 | 12.7 | 46600 | 13400 | 75.7 | 40.5 |  |  |
| NS(=O)(=O)OC[C@H]1[C@H](F)[C@@H](Nc2ncncc2C(=O)c2cc3c(s2)CCC[C@]32NCCc3ccc(F)cc32)C[C@@H]1O [Compound 93] | 32.1 | 448 | 406 | 71.1 | 1.88 | 448 | 281 | 9.18 | 25100 | 13300 | 56 | 47.4 |  |  |
| NS(=O)(=O)OC[C@H]1[C@H](F)[C@@H](Nc2ncncc2C(=O)c2cc3c(s2)CC[C@]32NCCc3ccc(Cl)cc32)C[C@@H]1O [Compound 132] | 40.6 | 602 | 803 | 27.5 | 3.48 | 602 | 438 | 5.45 | 38200 | 9270 | 63.4 | 21.1 |  |  |
| Cc1sc(C(=O)c2cncnc2N[C@H]2C[C@H](O)[C@@H](COS(N)(=O)=O)[C@@H]2F)cc1[C@@H]1NCCc2ccc(Cl)cc21 [Compound 233] | 42.6 |  |  |  |  |  |  |  |  |  |  |  |  | Plasma AUClast ([1]; 1 mpk): 132 ng·h/mL; C0 ([1]; 1 mg/kg, 1 mpk, plasma): 77 ng/mL; clearance ([1]; 1 mg/kg, 1 mpk, plasma): 103 mL/min/kg; half-life ([1]; 1 mg/kg, 1 mpk, plasma): 3.63 h; AUC(0-t) ([1]; 1 mg/kg, 1 mpk, plasma, read-out: AUClast): 132 ng·h/mL; Cmax ([1]; 1 mg/kg, 1 mpk, plasma, read-out: Cmax): 58 ng/mL; Vd ([1]; 1 mg/kg, 1 mpk, plasma): 27.6 L/kg; AUC(0-t) ([1]; 1 mg/kg, 1 mpk, whole blood, read-out: Whole blood AUClast): 30100 ng·h/mL; Cmax ([1]; 1 mg/kg, 1 mpk, whole blood, read-out: Whole blood Cmax): 4430 ng/mL; blood plasma ratio ([1]; 1 mg/kg, 1 mpk, read-out: Whole blood AUClast/plasma AUClast ratio): 228; blood plasma ratio ([1]; 1 mg/kg, 1 mpk, read-out: Whole blood Cmax/plasma Cmax ratio): 76.3 |
| NS(=O)(=O)OC[C@H]1[C@H](F)[C@@H](Nc2ncncc2C(=O)c2cc3c(s2)C=C[C@]32NCCc3ccc(Cl)cc32)C[C@@H]1O [Compound 344] | 20.7 | 345 | 249 | 94.9 | 1.48 | 345 | 299 | 8.65 | 17000 | 7780 | 49.2 | 26 |  |  |
| CC1Cc2ccc(Cl)cc2[C@]2(C=Cc3sc(C(=O)c4cncnc4N[C@H]4C[C@H](O)[C@@H](COS(N)(=O)=O)[C@@H]4F)cc32)N1 (some centres unmarked) [Compound 1057] |  |  |  |  |  |  |  |  |  |  |  |  | > 200 |  |
| CC1Cc2ccc(Cl)cc2[C@@]2(C=Cc3sc(C(=O)c4cncnc4N[C@H]4C[C@H](O)[C@@H](COS(N)(=O)=O)[C@@H]4F)cc32)N1 (some centres unmarked) [Compound 1058] |  |  |  |  |  |  |  |  |  |  |  |  | 50 to 200 |  |
| CC1(C)CNC2(C=Cc3sc(C(=O)c4cncnc4N[C@H]4C[C@H](O)[C@@H](COS(N)(=O)=O)[C@@H]4F)cc32)c2cc(Cl)ccc21 (some centres unmarked) [Compound 1059] |  |  |  |  |  |  |  |  |  |  |  |  | 50 to 200 |  |
| CC1(C)CN[C@@]2(C=Cc3sc(C(=O)c4cncnc4N[C@H]4C[C@H](O)[C@@H](COS(N)(=O)=O)[C@@H]4F)cc32)c2cc(Cl)ccc21 [Compound 1060] |  |  |  |  |  |  |  |  |  |  |  |  | > 200 |  |
| CC1(C)CN[C@]2(C=Cc3sc(C(=O)c4cncnc4N[C@H]4C[C@H](O)[C@@H](COS(N)(=O)=O)[C@@H]4F)cc32)c2cc(Cl)ccc21 [Compound 1061] |  |  |  |  |  |  |  |  |  |  |  |  | 50 to 200 |  |
